Laboratory results as given in patent US20260234188A1, “CHEMOKINE-BINDING PEPTIDES” (Oxford University Innovation Limited, priority 2022, published 2026).
Entries after “also recorded” stand apart in the source; their conditions may differ. Ends that are not written are not given here.

Key:
[1] = target: T1, panel of 25 biotinylated chemokines (Homo sapiens, UniProt P48061); assay: Phage-display screen of HD2 combinatorial mutagenesis library; assay type: binding; details: CXCL12
T1 construct: purchased Almac or ProteinFoundry
Excerpt: FIG. 20. Phage display-combinatorial mutagenesis. FIG. 20A, Tile-plot (bottom panel) showing impact of selected HD2 mutations on Δlog 2 E for all chemokines studied. Δlog 2 E is the difference in log 2 E between the parental wild-type peptide and the mutant variant following phage-display selection. See methods for a description of the strategy used for selecting individual mutations. FIG. 20B, All possible combinations of 16 selected single mutations (coloured using the Taylor scale) at 11 residue locations were combined to create a phage-display library with 3585 mutation combinations. The library included the parental HD2 sequence and single mutations as well. Library cloning, screening and analysis was performed as described in the examples.
Combinations of different mutations identified by saturation mutagenesis selection were then studied to see if they could result in additive or cooperative effects, allowing further evolution of peptide function in a desired direction. Traditionally, the selection of two or more mutations in combination is guided by knowledge of the structure of the protein-peptide interface. This approach works well when designing agents against a single target where the interface structure has been experimentally characterised but is challenging when designing agents active against multiple targets, where the interface structures have not been experimentally characterised. To systematically identify mutation combinations that work well against multiple structurally related targets we explored the possibility of using phage-display to select combinations of mutations that bind CC or XC classes of chemokines. […]
As CC and XC binding peptides appeared to have a different improving mutation spectrum we selected mutations using an algorithm that optimizes CC and XC improving mutations separately. […] The library quality was assessed by NGS AmpliconEZ (50,000 reads), and 3584 of 3585 inserts were identified. […]

CXCL12 = CXCL12 (Homo sapiens, UniProt P48061); assay type: cell-based; set-up: activity in inhibiting migration of activated T cells in comparison to HD2_Y5W: dose or concentration left out as unconfirmed; details: peptides final concentration as printed, chemokine at EC80
Procedure: FIG. 22. Effect of selected combinatorial HD2 mutations on chemotaxis. FIG. 22A. Box-whisker plot showing the effect of the exemplar single and combinatorically mutant (CM) HD2 peptides on activated-T cell (ATC) migration induced by CXCL12. All experiments were performed as at least three technical and three biological replicates, and individual data points are indicated. […] HD2SCR is a scrambled version of HD2. […] Statistically significant differences (compared to control, HD2_Y5W, coloured blue), using Dunnett's test with correction for multiple comparisons, are indicated by asterisks: ****=P≤0.0001, ***=P≤0.001, **=P≤0.01, *=P≤0.05. All comparisons were made to HD2_Y5W, as it is present in CM539, CM452, and CM304. […] Technical replicates are shown as individual data points. […] The response curve (solid blue line) and its 95% confidence interval (grey ribbon) were calculated using a 4-parameter log-logistic plot. The agonist and estimated IC50 (dotted green line) are indicated.
(§1) The J:CXCR1 cell line was generated by transfecting Jurkat cells by electroporation with PvuI-linearized plasmid D1398 and selecting with blasticidin (Sigma-Aldrich, Cat #203350, […]). […] J:CXCR1 cells were cultured in RPMI-1640 media (Gibco), supplemented with 10% FBS and 5 mM L-Glutamine with blasticidin. For J:CXCR1 migration assays, 300,000 cells/well were added to the top chamber of a 3 μm Transwell insert (Corning) in 50 μL of migration media (RPMI-1640, 0.5% FBS, 4 mM L-Glutamine, 0.05% DMSO). The bottom chamber contained 150 μL of chemokine, with or without peptide. Cells were migrated at 37° C. in 5% CO2 for 4 hours. The plate was incubated on a shaking platform for 10 minutes, 800 rpm, at 37° C., and 150 μL from the bottom of the plate transferred into a U-bottom plate containing 50 μL of migration media. Cell counts were determined by Attune NxT Flow Cytometer Plate Reader (ThermoFisher), based on cell size parameters FSC-H/SSC-H. Experiments were performed in 3 technical and 3 biological replicates. THP-1 migration assays were carried out using methods known in the art. Activated T-cell assays were carried out using methods known in the art, with the following modifications in the isolation process. Peripheral blood cells were obtained from leucocyte cones (NHS Blood Transfusion Services), following which, T-cells were isolated using two rounds of human CD8+ T-cell isolation kit (480011, BioLegend). At day 10 after activation, T-cells were frozen at 20 E6 cells/ml in TexMACS medium supplemented with 10% DMSO (D2650, Sigma) in liquid nitrogen. Prior to use, activated T-cells were recovered for 24 hours in TexMACs medium at 0.3 E6 cells/ml and incubated at 37° C. in 5% CO2. Chemokine sources are described in Supplementary information Table 3. Statistical significances between control experimental groups was evaluated using Dunnett's test. IC50 experiments were performed at the EC80 dose of chemokine. EC80 was calculated by fitting a chemokine dose-response curve with 3 parameters (fixing the top to 100%). IC50 was calculated by fitting an inhibitor response curve with 4 parameters.
Migration assays using THP1, activated T-cell (ATC) and J:CXCR1 (Jurkat cells stably transfected with CXCR1 receptor) were performed as described previously. IC50 experiments were performed at the EC80 dose of chemokine. EC80 was calculated by fitting a chemokine dose-response curve with 3 parameters (fixing the top to 100%). IC50 was calculated by fitting an inhibitor response curve with 4 parameters. R-packages used were ggupset_0.3.0, DescTools_0.99.44, and drc_3.0-1.

[2] = tested on: panel of up to 42 human chemokines; assay: Phage-display next generation sequencing screen of overlapping hexadecapeptide libraries, chemokines displayed on streptavidin beads; assay type: binding; details: log2E greater than 5, chemokines named by first part of UniProt Entry Name, peptides binding complement C5a (control) excluded;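 also: chemokine listed when log2 fold enrichment exceeds 5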
In short: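 Phage-display libraries of 55662 overlapping hexadecapeptides from tick and viral chemokine-binding proteins, human chemokines and chemokine receptors screened against up to 42 human chemokines, with hits found by next-generation sequencing. Peptides mapped to parent-protein position with log2 fold enrichment; regions of interest where cumulative residue log2 E exceeds the 95% upper CI of the protein median.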

CXCL9 = target: T2, CXCL9 (Homo sapiens, UniProt Q07325); assay: CXCL9-induced activated T-cell migration, transwell assay; assay type: cell-based; details: peptide 10 μM, chemokine at EC80
T2 construct: purchased Peprotech
T2 sequence (Q07325 23-125): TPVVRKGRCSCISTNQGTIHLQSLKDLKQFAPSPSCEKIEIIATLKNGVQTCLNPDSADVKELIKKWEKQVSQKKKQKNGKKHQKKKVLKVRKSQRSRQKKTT
Procedure: (§2) FIG. 2. […] BK1.2 is described in (Darlot, 2020). […] Chemokines used are indicated by the name, followed in parenthesis by the supplier code (P in supplier code indicates Peprotech). […] All experiments were performed at EC80 doses of indicated chemokine. Data are shown as box-whisker plots of three technical and three biological replicates. Statistically significant differences (compared to control, indicated by #), using Dunnett's test with correction for multiple comparisons, are indicated by asterisks: ****=P≤0.0001, ***=P≤0.001, **=P≤0.01, *=P≤0.05.
(§3) Briefly, cell migration assays use THP1 cells (human monocyte) and primary human buffy coat white cells (consisting of neutrophil granulocytes, monocytes, and lymphocytes), and activated T-cells. THP1 cells and primary monocytes respond to CCL2, CCL3, CCL5, CCL8 and CXCL4, granulocytes to CXCL1 and CXCL8, activated T-cells to CXCL9/10/11. Assays are performed in 96-well Boyden chambers, and migrated cells counted and characterized using and ATTUNE Flow Cytometer as described. Triplicate assays are performed at the EC80 dose of each chemokine at 10 μM peptide concentration.
as §1

CXCL10 = target: T3, CXCL10 (Homo sapiens, UniProt P02778); assay: CXCL10-induced activated T-cell migration, transwell assay; assay type: cell-based; details: peptide 10 μM, chemokine at EC80
T3 construct: purchased Peprotech
T3 sequence (P02778 22-98): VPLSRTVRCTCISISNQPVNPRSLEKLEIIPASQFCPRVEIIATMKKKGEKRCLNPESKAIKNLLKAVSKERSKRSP
Procedure: as §2
FIG. 11. […] Technical replicates are shown as individual data points. […] The response curve (solid blue line) and its 95% confidence interval (grey ribbon) were calculated using a 4-parameter log-logistic plot.
as §3, with “Triplicate assays are performed at the EC80 dose of each chemokine at 10 μM peptide concentration.” left out

CXCL11 = target: T4, CXCL11 (Homo sapiens, UniProt O14625); assay: CXCL11-induced activated T-cell migration, transwell assay; assay type: cell-based; details: peptide 10 μM, chemokine at EC80
T4 construct: purchased Peprotech
T4 sequence (O14625 22-94): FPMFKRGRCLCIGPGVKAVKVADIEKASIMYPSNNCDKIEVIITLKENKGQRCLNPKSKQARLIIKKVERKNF
Procedure: as §2, §3, §1

Sequence of CXCL12 (P48061 22-89 limits assumed): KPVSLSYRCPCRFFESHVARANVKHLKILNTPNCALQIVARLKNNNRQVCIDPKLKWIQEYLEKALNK
T1 sequence (P48061 22-89 limits assumed): as above

In the case of “DEDDWDAYAPIWCYFT-NH2 [CM304, DEDDWDAYAPIWCYFT]”, the “binding in phage display” value [1] is reported as “enhanced binding” and the “activity in inhibiting migration of activated T cells in comparison to HD2_Y5W” value (shortened to “activity in inhibiting migration”) (CXCL12) is reported as “significantly enhanced activity”.
DDDDWDAYAPIWCYFT [CM452] was tested, and the “binding in phage display” value [1] was “enhanced binding” and the “activity in inhibiting migration” value (CXCL12) was “significantly enhanced activity”.
For DDDDWDDYAPITCYFD [CM539], the “binding in phage display” value [1] was “enhanced binding” and the “activity in inhibiting migration” value (CXCL12) was “significantly enhanced activity”.
In the case of CVEITYFGDFGDPSQD [EB429], the “Chemokines Bound” value [2] is reported as “CXL10, CXL11,; also recorded: SDF1, CXL13”, the “inhibition of cell migration” value (CXCL9) is reported as “inhibit cell migration” and the “inhibition of cell migration” value (CXCL10) is reported as “inhibit cell migration”. For the same substance, the “inhibition of cell migration” value (CXCL11) was “inhibit cell migration”.
